Like-named read-outs stand apart in the source and are kept apart here.
Assays:
[1] = Turbidity, derived count rate of scattered light; assay type: physicochemical; settings: for Count Rate: derived count rate of scattered light (turbidity); for Log10 Count Rate: turbidity, derived count rate of scattered light, data of Figure 2D
[2] = assay type: physicochemical; settings: for ThT Cat. / ThT-Fluorescence (categorical): ThT-active if fluorescence at least twice the control
Outline: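 Preformed peptide fibrils (1 mg/mL) mixed with 50 µM ThT in PBS, 15 min at RT, fluorescence ex 440/em 488 nm versus PBS blank, triplicates. Zeta potential: peptides at 1 mg/mL in PBS pH 7.4, aged 1 d at RT, diluted in 1 mM KCl, Smoluchowski from electrophoretic mobility.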

[3] = assay type: physicochemical; design: key to Fibril / Fibril Formation / TEM 2cat / Fibril: 1 = fibrils present; 0 non-fibrillar structures; settings: for Fibril / Fibril Formation: 1 mg/mL, uranyl acetate stain, qualitative
[4] = ThT fluorescence category, 1 if Rel. ThT >2
[5] = Fig S10 panel D, fibril category by TEM
[6] = FigS12 panel A, fibril category by TEM
[7] = TEM, 1 = fibrils present, 0 = non-fibrillar
[8] = TEM, 1 = fibrils present, 0 = non-fibrillar structures
[9] = category: fibrils present or non-fibrillar

## KFKFEFEF
[1]
  Count Rate: 2186
  Log10 Count Rate: 3.34
[2]; Fig S10 panel D
  Tht category (> 2 to blank = +): 1 (ThT. Cat is 1, if Rel. ThT >2)
[2]; FigS12 panel A
  Tht category (> 2 to blank = +): 1 (ThT. Cat is 1, if Rel. ThT >2)
[2]; FigS12 panel B
  ThT Cat,: 1 (ThT. Cat is 1, if Rel. ThT >2)
[2]; ThT category, 1 if Rel. ThT >2
  ThT Cat,: 1 (ThT. Cat is 1, if Rel. ThT >2)
[2]; [4]
  ThT Cat.: 1 (ThT. Cat is 1, if Rel. ThT >2)
[2]
  ThT Cat. / ThT-Fluorescence (categorical): 1 (ThT. Cat is 1, if Rel. ThT >2)
[3]; [5]
  TEM 2cat: 1
[3]; [6]
  TEM 2cat: 1
[3]; FigS12 panel B, TEM
  Fibril: 1
[3]; TEM
  Fibril / Fibril Formation: 1
[3]; [7]
  Fibril: 1
[3]; [8]
  Fibril: 1

## KFKFKFQF
[1]
  Count Rate: 1036
  Log10 Count Rate: 3.015
[2]; Fig S10 panel D
  Tht category (> 2 to blank = +): 1 (ThT. Cat is 1, if Rel. ThT >2)
[2]; Fig S10 panel E
  ThT Cat.: 1 (ThT. Cat is 1, if Rel. ThT >2)
[2]; ThT category, 1 if Rel. ThT >2
  ThT Cat,: 1 (ThT. Cat is 1, if Rel. ThT >2)
[2]; [4]
  ThT Cat.: 1 (ThT. Cat is 1, if Rel. ThT >2)
[2]
  ThT Cat. / ThT-Fluorescence (categorical): 1 (ThT. Cat is 1, if Rel. ThT >2)
[3]; [5]
  TEM 2cat: 1
[3]; Fig S10 panel E
  Fibril: 1
[3]; TEM
  Fibril / Fibril Formation: 1
[3]; [7]
  Fibril: 1
[3]; [8]
  Fibril: 1
[3]; [9]
  TEM 2cat: 1

## KFKFQFF
[1]
  Count Rate: 37.77
  Log10 Count Rate: 1.577
[2]; Fig S10 panel D
  Tht category (> 2 to blank = +): 1 (ThT. Cat is 1, if Rel. ThT >2)
[2]; ThT category, 1 if Rel. ThT >2
  ThT Cat,: 1 (ThT. Cat is 1, if Rel. ThT >2)
[2]; [4]
  ThT Cat.: 1 (ThT. Cat is 1, if Rel. ThT >2)
[2]
  ThT Cat. / ThT-Fluorescence (categorical): 1 (ThT. Cat is 1, if Rel. ThT >2)
[3]; [5]
  TEM 2cat: 1
[3]; TEM
  Fibril / Fibril Formation: 1
[3]; [7]
  Fibril: 1
[3]; [8]
  Fibril: 1
[3]; [9]
  TEM 2cat: 1

## KFKFQFFF
[1]
  Count Rate: 3039
  Log10 Count Rate: 3.483
[2]; Fig S10 panel D
  Tht category (> 2 to blank = +): 1 (ThT. Cat is 1, if Rel. ThT >2)
[2]; Fig S10 panel E
  ThT Cat.: 1 (ThT. Cat is 1, if Rel. ThT >2)
[2]; ThT category, 1 if Rel. ThT >2
  ThT Cat,: 1 (ThT. Cat is 1, if Rel. ThT >2)
[2]; [4]
  ThT Cat.: 1 (ThT. Cat is 1, if Rel. ThT >2)
[2]
  ThT Cat. / ThT-Fluorescence (categorical): 1 (ThT. Cat is 1, if Rel. ThT >2)
[3]; [5]
  TEM 2cat: 1
[3]; Fig S10 panel E
  Fibril: 1
[3]; TEM
  Fibril / Fibril Formation: 1
[3]; [7]
  Fibril: 1
[3]; [8]
  Fibril: 1
[3]; [9]
  TEM 2cat: 1

## KFKFQFN
[1]
  Count Rate: 50.7
  Log10 Count Rate: 1.705
[2]; Fig S10 panel D
  Tht category (> 2 to blank = +): 0 (ThT-inactive (N-Fold <2))
[2]; FigS12 panel A
  Tht category (> 2 to blank = +): 0 (ThT-inactive (N-Fold <2))
[2]; FigS12 panel B
  ThT Cat,: 0 (ThT-inactive (N-Fold <2))
[2]; ThT category, 1 if Rel. ThT >2
  ThT Cat,: 0 (ThT-inactive (N-Fold <2))
  ThT Cat.: 0 (ThT-inactive (N-Fold <2))
[2]
  ThT Cat. / ThT-Fluorescence (categorical): 0 (ThT-inactive (N-Fold <2))
[2]; n-fold ThT fluorescence vs control (PBS, 10% DMSO), 4 µL 1 mg/mL fibrils + 20 µL 50 µM ThT, 15 min RT, ex 440 / em 488 nm, triplicate
  Rel. ThT: 1.1
[3]; Fig S10 panel D
  TEM 2cat: 1
[3]; [6]
  TEM 2cat: 1
[3]; FigS12 panel B, TEM
  Fibril: 1
[3]; TEM
  Fibril / Fibril Formation: 1
[3]; [7]
  Fibril: 1
[3]; [8]
  Fibril: 1

## KFKFQFNM
[1]
  Count Rate: 131.8
  Log10 Count Rate: 2.12
[2]; Fig S10 panel D
  Tht category (> 2 to blank = +): 0 (ThT-inactive (N-Fold <2))
[2]; Fig S10 panel E
  ThT Cat.: 0 (ThT-inactive (N-Fold <2))
[2]; ThT category, 1 if Rel. ThT >2
  ThT Cat,: 0 (ThT-inactive (N-Fold <2))
  ThT Cat.: 0 (ThT-inactive (N-Fold <2))
[2]
  ThT Cat. / ThT-Fluorescence (categorical): 0 (ThT-inactive (N-Fold <2))
[3]; Fig S10 panel D
  TEM 2cat: 1
[3]; Fig S10 panel E
  Fibril: 1
[3]; TEM
  Fibril / Fibril Formation: 1
[3]; [7]
  Fibril: 1
[3]; [8]
  Fibril: 1
[3]; [9]
  TEM 2cat: 1

## KFKFQFW
[1]
  Count Rate: 121.9
  Log10 Count Rate: 2.086
[2]; Fig S10 panel D
  Tht category (> 2 to blank = +): 1 (ThT. Cat is 1, if Rel. ThT >2)
[2]; ThT category, 1 if Rel. ThT >2
  ThT Cat,: 1 (ThT. Cat is 1, if Rel. ThT >2)
  ThT Cat.: 1 (ThT. Cat is 1, if Rel. ThT >2)
[2]
  ThT Cat. / ThT-Fluorescence (categorical): 1 (ThT. Cat is 1, if Rel. ThT >2)
[3]; [5]
  TEM 2cat: 1
[3]; TEM
  Fibril / Fibril Formation: 1
[3]; [7]
  Fibril: 1
[3]; [8]
  Fibril: 1
[3]; [9]
  TEM 2cat: 1

## KFKQFFINMWQ
[1]
  Count Rate: 8996
  Log10 Count Rate: 3.954
[2]; Fig S10 panel D
  Tht category (> 2 to blank = +): 0 (ThT-inactive (N-Fold <2))
[2]; ThT category, 1 if Rel. ThT >2
  ThT Cat,: 0 (ThT-inactive (N-Fold <2))
  ThT Cat.: 0 (ThT-inactive (N-Fold <2))
[2]
  ThT Cat. / ThT-Fluorescence (categorical): 0 (ThT-inactive (N-Fold <2))
[3]; [5]
  TEM 2cat: 1
[3]; TEM
  Fibril / Fibril Formation: 1
[3]; [7]
  Fibril: 1
[3]; [8]
  Fibril: 1
[3]; [9]
  TEM 2cat: 1

## KIEIQINM
[1]
  Count Rate: 274.8
  Log10 Count Rate: 2.439
[2]; Fig S10 panel D
  Tht category (> 2 to blank = +): 0 (ThT-inactive (N-Fold <2))
[2]; FigS12 panel A
  Tht category (> 2 to blank = +): 0 (ThT-inactive (N-Fold <2))
[2]; FigS12 panel B
  ThT Cat,: 0 (ThT-inactive (N-Fold <2))
[2]; ThT category, 1 if Rel. ThT >2
  ThT Cat,: 0 (ThT-inactive (N-Fold <2))
[2]; [4]
  ThT Cat.: 0 (ThT-inactive (N-Fold <2))
[2]
  ThT Cat. / ThT-Fluorescence (categorical): 0 (ThT-inactive (N-Fold <2))
[3]; [5]
  TEM 2cat: 1
[3]; [6]
  TEM 2cat: 1
[3]; FigS12 panel B, TEM
  Fibril: 1
[3]; TEM
  Fibril / Fibril Formation: 1
[3]; [7]
  Fibril: 1
[3]; [8]
  Fibril: 1

## KIKIKIKI
[1]
  Count Rate: 155.1
  Log10 Count Rate: 2.191
[2]; Fig S10 panel D
  Tht category (> 2 to blank = +): 1 (ThT. Cat is 1, if Rel. ThT >2)
[2]; FigS12 panel A
  Tht category (> 2 to blank = +): 1 (ThT. Cat is 1, if Rel. ThT >2)
[2]; FigS12 panel B
  ThT Cat,: 1 (ThT. Cat is 1, if Rel. ThT >2)
[2]; ThT category, 1 if Rel. ThT >2
  ThT Cat,: 1 (ThT. Cat is 1, if Rel. ThT >2)
[2]; [4]
  ThT Cat.: 1 (ThT. Cat is 1, if Rel. ThT >2)
[2]
  ThT Cat. / ThT-Fluorescence (categorical): 1 (ThT. Cat is 1, if Rel. ThT >2)
[3]; [5]
  TEM 2cat: 0
[3]; [6]
  TEM 2cat: 0
[3]; FigS12 panel B, TEM
  Fibril: 0
[3]; TEM
  Fibril / Fibril Formation: 0
[3]; [7]
  Fibril: 0
[3]; [8]
  Fibril: 0

## KIKIKIKIWW
[1]
  Count Rate: 9436
  Log10 Count Rate: 3.975
[2]; Fig S10 panel D
  Tht category (> 2 to blank = +): 1 (ThT. Cat is 1, if Rel. ThT >2)
[2]; Fig S10 panel E
  ThT Cat.: 1 (ThT. Cat is 1, if Rel. ThT >2)
[2]; ThT category, 1 if Rel. ThT >2
  ThT Cat,: 1 (ThT. Cat is 1, if Rel. ThT >2)
[2]; [4]
  ThT Cat.: 1 (ThT. Cat is 1, if Rel. ThT >2)
[2]
  ThT Cat. / ThT-Fluorescence (categorical): 1 (ThT. Cat is 1, if Rel. ThT >2)
[3]; [5]
  TEM 2cat: 0
[3]; Fig S10 panel E
  Fibril: 0
[3]; TEM
  Fibril / Fibril Formation: 0
[3]; [7]
  Fibril: 0
[3]; [8]
  Fibril: 0
[3]; [9]
  TEM 2cat: 0

## KIKIKIKIWWWW
[1]
  Count Rate: 12420.6
  Log10 Count Rate: 4.094
[2]; Fig S10 panel D
  Tht category (> 2 to blank = +): 1 (ThT. Cat is 1, if Rel. ThT >2)
[2]; ThT category, 1 if Rel. ThT >2
  ThT Cat,: 1 (ThT. Cat is 1, if Rel. ThT >2)
[2]; [4]
  ThT Cat.: 1 (ThT. Cat is 1, if Rel. ThT >2)
[2]
  ThT Cat. / ThT-Fluorescence (categorical): 1 (ThT. Cat is 1, if Rel. ThT >2)
[3]; [5]
  TEM 2cat: 0
[3]; TEM
  Fibril / Fibril Formation: 0
[3]; [7]
  Fibril: 0
[3]; [8]
  Fibril: 0
[3]; [9]
  TEM 2cat: 0

## KIKIKIQI
[1]
  Count Rate: 999.1
  Log10 Count Rate: 3
[2]; Fig S10 panel D
  Tht category (> 2 to blank = +): 1 (ThT. Cat is 1, if Rel. ThT >2)
[2]; Fig S10 panel E
  ThT Cat.: 1 (ThT. Cat is 1, if Rel. ThT >2)
[2]; FigS12 panel A
  Tht category (> 2 to blank = +): 1 (ThT. Cat is 1, if Rel. ThT >2)
[2]; FigS12 panel B
  ThT Cat,: 1 (ThT. Cat is 1, if Rel. ThT >2)
[2]; ThT category, 1 if Rel. ThT >2
  ThT Cat,: 1 (ThT. Cat is 1, if Rel. ThT >2)
[2]; [4]
  ThT Cat.: 1 (ThT. Cat is 1, if Rel. ThT >2)
[2]
  ThT Cat. / ThT-Fluorescence (categorical): 1 (ThT. Cat is 1, if Rel. ThT >2)
[3]; [5]
  TEM 2cat: 1
[3]; Fig S10 panel E
  Fibril: 1
[3]; [6]
  TEM 2cat: 1
[3]; FigS12 panel B, TEM
  Fibril: 1
[3]; TEM
  Fibril / Fibril Formation: 1
[3]; [7]
  Fibril: 1
[3]; [8]
  Fibril: 1

Reference: publication PMC10447463, “Data-mining unveils structure–property–activity correlation of viral infectivity enhancing self-assembling peptides” (Nature Communications, 2023)
